The source of these data is ChEMBL document CHEMBL1201862, “PubChem BioAssay data set” (2004).

Test [1] deals with FAD-linked sulfhydryl oxidase ALR (Homo sapiens, UniProt P55789). Put plainly: ALR-catalysed DTT oxidation blockers – biochemical, H2O2 detection, luminescence, cherry-pick, dose response (AID 493248).
Test [2] concerns the target T1, Polyadenylate-binding protein 1 (Homo sapiens, UniProt P11940). Put plainly: MLLE binding blockers, Cy5 peptide tracer – biochemical, fluorescence polarization, Cy5-PAM2 peptide, secondary, miRNA deadenylation inhibitor project, dose response (AID 602260). As to conditions: read-out: IC50_Mean. It counts as functional. (In general: Polarisation of emitted light reports the rotation of a fluorescent probe.)

For test [3], the target named is T1, Polyadenylate-binding protein 1. Put plainly: MLLE domain peptide-binding blockers, IC50 – biochemical, fluorescence polarization, FITC-PAM2 peptide, dose response (AID 602259). As to conditions: read-out: IC50_Mean. It counts as functional.
The nature of test [4]: A Cell Based Secondary Assay To Explore Cytotoxicity of Compounds that Sensitize Mycobacterium Tuberculosis to Beta-Lactam Antibiotics. It counts as functional.
The target of test [5] is Cytochrome P450 2C19 (Homo sapiens, UniProt P33261). Put plainly: Cytochrome panel assay with activity outcomes. Panel member name: p450-cyp2c19 Compounds with AC50 equal or less than 10 uM are considered active. As to conditions: read-out: AC50. It counts as functional.
Cytochrome P450 2C19, sequence (P33261 whole entry): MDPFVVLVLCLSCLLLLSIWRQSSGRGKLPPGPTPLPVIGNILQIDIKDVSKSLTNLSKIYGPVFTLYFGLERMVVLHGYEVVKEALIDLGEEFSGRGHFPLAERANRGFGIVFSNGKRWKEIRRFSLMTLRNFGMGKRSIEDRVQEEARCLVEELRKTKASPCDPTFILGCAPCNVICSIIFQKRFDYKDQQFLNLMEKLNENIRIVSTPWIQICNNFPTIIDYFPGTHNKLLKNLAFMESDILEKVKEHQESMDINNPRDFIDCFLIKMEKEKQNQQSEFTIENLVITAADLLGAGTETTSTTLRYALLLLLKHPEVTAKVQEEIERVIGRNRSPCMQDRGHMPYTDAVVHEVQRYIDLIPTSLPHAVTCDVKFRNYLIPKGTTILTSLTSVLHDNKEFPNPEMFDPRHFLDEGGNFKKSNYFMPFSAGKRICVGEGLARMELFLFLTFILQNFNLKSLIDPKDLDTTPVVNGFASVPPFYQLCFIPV
The target of test [6] is T2, Calpain-2 catalytic subunit (Sus scrofa, UniProt P43367).
T2 sequence (P43367 whole entry): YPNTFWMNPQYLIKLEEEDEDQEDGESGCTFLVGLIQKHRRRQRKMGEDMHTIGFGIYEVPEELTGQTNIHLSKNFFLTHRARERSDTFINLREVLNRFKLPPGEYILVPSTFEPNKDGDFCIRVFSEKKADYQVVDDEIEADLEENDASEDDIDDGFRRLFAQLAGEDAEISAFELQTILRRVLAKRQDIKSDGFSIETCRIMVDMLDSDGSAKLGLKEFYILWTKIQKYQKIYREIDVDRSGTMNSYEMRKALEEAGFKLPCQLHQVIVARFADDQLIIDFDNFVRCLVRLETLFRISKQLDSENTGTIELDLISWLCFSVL
Put plainly: m-calpain protease blockers, concentration series – biochemical, fluorogenic peptide substrate, dose response (AID 1420). It counts as functional.

Test [7] addresses T3, Mannose-6-phosphate isomerase (Homo sapiens, UniProt P34949).
T3 sequence (P34949 whole entry): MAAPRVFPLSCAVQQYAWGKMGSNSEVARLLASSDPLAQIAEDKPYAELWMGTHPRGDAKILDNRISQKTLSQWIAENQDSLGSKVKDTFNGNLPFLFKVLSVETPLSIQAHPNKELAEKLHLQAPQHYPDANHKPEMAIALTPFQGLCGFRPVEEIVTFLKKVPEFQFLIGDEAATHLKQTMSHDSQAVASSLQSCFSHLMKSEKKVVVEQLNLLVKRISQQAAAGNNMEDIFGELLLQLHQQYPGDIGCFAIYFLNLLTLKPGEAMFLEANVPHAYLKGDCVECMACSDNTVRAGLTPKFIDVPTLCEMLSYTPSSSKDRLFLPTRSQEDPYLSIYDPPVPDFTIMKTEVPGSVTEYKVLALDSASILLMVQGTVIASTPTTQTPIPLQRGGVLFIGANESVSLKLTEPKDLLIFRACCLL
Put plainly: MPI inhibition at elevated mannose 6-phosphate – biochemical, fluorescence intensity, high mannose 6-phosphate, primary screen (AID 1220).

Test [8] concerns the target T4, Rac GTPase-activating protein 1 (Homo sapiens, UniProt Q9H0H5).
T4 sequence (Q9H0H5 whole entry): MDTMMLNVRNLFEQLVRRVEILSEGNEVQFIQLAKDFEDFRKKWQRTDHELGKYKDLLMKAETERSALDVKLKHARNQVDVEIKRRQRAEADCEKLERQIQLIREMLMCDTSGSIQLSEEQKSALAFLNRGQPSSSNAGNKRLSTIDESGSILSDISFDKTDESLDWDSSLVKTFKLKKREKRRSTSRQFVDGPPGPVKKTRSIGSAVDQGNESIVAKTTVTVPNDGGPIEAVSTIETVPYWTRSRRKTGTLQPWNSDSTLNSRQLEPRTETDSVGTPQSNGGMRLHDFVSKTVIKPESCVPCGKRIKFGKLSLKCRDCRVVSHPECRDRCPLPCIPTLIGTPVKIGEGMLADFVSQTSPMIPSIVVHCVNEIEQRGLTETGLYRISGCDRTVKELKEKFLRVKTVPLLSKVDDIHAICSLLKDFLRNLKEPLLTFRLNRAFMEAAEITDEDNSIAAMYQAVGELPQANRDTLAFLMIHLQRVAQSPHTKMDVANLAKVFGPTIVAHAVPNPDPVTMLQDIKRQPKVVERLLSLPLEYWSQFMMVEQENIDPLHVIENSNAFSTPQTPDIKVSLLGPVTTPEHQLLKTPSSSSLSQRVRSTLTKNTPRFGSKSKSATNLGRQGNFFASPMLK
Put plainly: blockers of MgcRacGAP-driven Rac1 GTP hydrolysis – biochemical, ADP Hunter fluorescence, primary and confirmatory, confirmation (AID 624330). It counts as functional.

Test [9] is described as follows: P. falciparum Dd2 growth inhibitors, dose response, SYBR Green, cherry-picked samples (AID 1159567). It counts as functional, cell-based.
Test [10] can be described thus: NIH-3T3 fibroblast cytotoxicity, dose response, cytotoxicity control, cell-based, fluorescence, Alamar Blue, secondary assay (AID 2327).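 Note: NIH-3T3 mouse fibroblasts cultured with fluconazole at 8 µg/mL.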 It counts as functional. For orientation: Alamar Blue is a resazurin reagent that responds to reducing activity.
Test [11] is described as follows: fluconazole-exposed Candida albicans growth modulators – fluorescence, retest, confirmation (AID 2467). It counts as functional, cell-based.
Test [12] deals with Streptococcus sp. 'group A'. Put plainly: Streptococcus pyogenes SK(-)GAS viability under kanamycin – luminescence, BacTiterGlo, confirmation, counter-screen for streptokinase expression inhibitor project, dose response (AID 1900). It counts as functional, organism-based. (In general: Counterscreens check selectivity or assay interference.)
Test [13] deals with T5, Streptokinase A (Streptococcus pyogenes serotype M1, UniProt P10520).
T5 sequence (P10520 whole entry): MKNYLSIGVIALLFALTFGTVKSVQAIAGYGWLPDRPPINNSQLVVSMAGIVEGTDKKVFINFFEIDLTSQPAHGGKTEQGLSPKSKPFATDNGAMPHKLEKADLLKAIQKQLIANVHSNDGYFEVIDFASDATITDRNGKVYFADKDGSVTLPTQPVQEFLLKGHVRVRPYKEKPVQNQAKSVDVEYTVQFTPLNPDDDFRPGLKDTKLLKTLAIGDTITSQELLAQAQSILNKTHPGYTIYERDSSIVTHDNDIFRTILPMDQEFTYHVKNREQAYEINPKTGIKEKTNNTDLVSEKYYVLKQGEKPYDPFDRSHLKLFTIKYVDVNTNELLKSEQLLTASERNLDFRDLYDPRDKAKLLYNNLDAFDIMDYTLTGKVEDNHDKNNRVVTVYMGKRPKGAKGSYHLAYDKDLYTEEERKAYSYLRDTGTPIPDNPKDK
Put plainly: viability-normalized secreted streptokinase activity reduction – plasminogen activation absorbance, OD405, dose response (AID 1914).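 Note: secreted streptokinase activity via plasminogen activation per viability signal from cell pellet.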 It counts as functional, Streptococcus pyogenes M1 GAS.

Test [14] addresses Luciferin 4-monooxygenase (Photinus pyralis, UniProt P08659). Put plainly: inhibition of purified Photinus pyralis luciferase – biochemical, luminescence, dose response (AID 1891).
A short description of test [15]: Luminescence Cell-Based Dose Confirmation HTS to Identify Inhibitors of Platelet Dense Granule Release. [Related pubchem assays: 1663 (Primary HTS), 1678 (Summary of Project)]. It counts as functional.
Test [16] relates to Streptococcus. Put plainly: GAS UMAA2166 growth inhibition – luminescence, BacTiterGlo, counter-screen for streptokinase expression inhibitor project, dose response (AID 1915).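 Note: potency for reduction of bacterial viability or growth.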 It counts as functional, organism-based.
Test [17] deals with Paired box protein Pax-8 (Homo sapiens, UniProt Q06710). Put plainly: PAX8 transcriptional activity inhibition in RMG-I – RMG-I cells, luciferase, cherry-pick, dose response (AID 687027).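 Note: luciferase reporter driven by Pax8 target thyroperoxidase promoter measured by SteadyGlo luminescence.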 It counts as functional, cell-based.
Paired box protein Pax-8, sequence (Q06710 whole entry): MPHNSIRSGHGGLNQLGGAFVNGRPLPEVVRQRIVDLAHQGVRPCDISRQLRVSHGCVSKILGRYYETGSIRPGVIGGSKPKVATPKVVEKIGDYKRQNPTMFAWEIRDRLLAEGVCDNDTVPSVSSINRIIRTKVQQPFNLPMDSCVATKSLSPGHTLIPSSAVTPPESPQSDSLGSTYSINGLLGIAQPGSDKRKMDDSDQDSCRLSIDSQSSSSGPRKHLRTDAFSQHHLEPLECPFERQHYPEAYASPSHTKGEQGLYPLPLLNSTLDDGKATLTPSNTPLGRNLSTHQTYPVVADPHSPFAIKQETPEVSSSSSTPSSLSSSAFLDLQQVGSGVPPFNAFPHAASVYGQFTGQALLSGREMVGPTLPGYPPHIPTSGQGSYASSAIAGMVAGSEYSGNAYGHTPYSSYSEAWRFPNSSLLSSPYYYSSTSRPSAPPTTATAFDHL
A short description of test [18]: OVCAR-3 cell viability loss – plate reader, dry powder samples, PAX8 inhibitor project, dose response (AID 743044). It counts as functional, cell-based.

The structures appear in SMILES notation. Active and inactive are the calls of the source.

As usually defined, the AC50 is the concentration at which the activity in the assay is half-maximal. By CC50 is commonly meant the concentration that lowers cell viability or growth by half. For orientation: EC50 means the midpoint of the concentration-response curve.

FAD-linked sulfhydryl oxidase ALR, sequence (P55789 whole entry): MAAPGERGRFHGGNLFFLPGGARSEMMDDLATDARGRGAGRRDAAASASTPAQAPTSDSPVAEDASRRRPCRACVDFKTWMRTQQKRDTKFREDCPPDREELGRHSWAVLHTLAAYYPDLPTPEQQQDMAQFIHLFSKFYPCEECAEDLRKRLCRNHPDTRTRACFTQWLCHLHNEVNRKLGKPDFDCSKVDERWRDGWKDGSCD
T1 sequence (P11940 whole entry): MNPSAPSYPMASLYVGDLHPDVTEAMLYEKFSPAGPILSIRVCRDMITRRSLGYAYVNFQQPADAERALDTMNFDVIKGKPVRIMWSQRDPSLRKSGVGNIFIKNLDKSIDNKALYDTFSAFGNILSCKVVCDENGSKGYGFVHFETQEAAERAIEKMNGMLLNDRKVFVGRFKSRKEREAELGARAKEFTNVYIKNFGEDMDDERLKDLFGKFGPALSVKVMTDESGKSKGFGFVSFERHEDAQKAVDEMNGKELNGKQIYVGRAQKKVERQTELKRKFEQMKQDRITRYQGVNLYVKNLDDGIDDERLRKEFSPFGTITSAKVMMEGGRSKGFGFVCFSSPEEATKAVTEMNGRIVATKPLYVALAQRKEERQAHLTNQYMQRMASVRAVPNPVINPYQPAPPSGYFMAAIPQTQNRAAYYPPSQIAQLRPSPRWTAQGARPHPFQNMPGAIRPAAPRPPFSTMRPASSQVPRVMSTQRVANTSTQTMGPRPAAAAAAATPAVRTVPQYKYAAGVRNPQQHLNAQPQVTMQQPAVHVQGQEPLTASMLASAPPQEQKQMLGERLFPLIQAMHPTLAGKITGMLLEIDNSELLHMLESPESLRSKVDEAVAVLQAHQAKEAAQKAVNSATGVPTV
Luciferin 4-monooxygenase, sequence (P08659 whole entry): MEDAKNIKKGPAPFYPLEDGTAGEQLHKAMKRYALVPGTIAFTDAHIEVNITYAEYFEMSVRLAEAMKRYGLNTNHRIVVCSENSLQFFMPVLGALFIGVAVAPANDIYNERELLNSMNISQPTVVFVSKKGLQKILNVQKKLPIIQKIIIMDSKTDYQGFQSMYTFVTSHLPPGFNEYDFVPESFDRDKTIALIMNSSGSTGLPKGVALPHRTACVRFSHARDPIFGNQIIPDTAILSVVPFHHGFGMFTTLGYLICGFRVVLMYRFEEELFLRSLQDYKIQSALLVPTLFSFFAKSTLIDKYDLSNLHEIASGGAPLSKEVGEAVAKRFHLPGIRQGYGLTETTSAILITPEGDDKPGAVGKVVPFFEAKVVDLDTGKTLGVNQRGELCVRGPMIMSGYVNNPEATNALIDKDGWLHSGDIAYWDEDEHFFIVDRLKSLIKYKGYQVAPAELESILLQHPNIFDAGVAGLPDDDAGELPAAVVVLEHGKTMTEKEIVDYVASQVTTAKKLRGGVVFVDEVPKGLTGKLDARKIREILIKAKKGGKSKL

Take `Cc1ccc(C2SCC(=O)N2c2ccccc2)cc1` (configuration not stated): the AC50 in [1] was < 0.005 µM (active). In addition, the IC50 in test [2] and in test [3] was > 66 µM (inactive) each time.

With `C=CCSc1nnc(-c2cc3c(-c4ccccc4)nn(C)c3s2)n1C`, in [4], the CC50 is > 40 µM (active). In addition, the half-maximal activity concentration (AC50) in test [5] is 17.8 µM (inconclusive).

Regarding `COc1ccc(-c2nc(NC(=O)CCNC(=O)c3ccco3)sc2C)cc1`, the IC50 in test [6] is reported as 3.03 µM (not active).

With `CN(C(S)=Nc1ccc(SC(F)F)cc1)c1ccc(O)cc1`, the IC50 in [7] is listed as > 50 µM (not active).

For the molecule `CCN(CC)c1ccc(/C=N/NC(=O)CC(C)C)cc1`, the AC50 in test [1] was 2.97 µM (active).

For `O=C(CCc1c[nH]c2ccccc12)NCCc1ccc(O)cc1`, the half-maximal activity concentration (AC50) in [1] was 7.62 µM (active). Moreover, in [8], the IC50 is 112 µM (active).

As to `CCOc1ccc(NC(=O)CCC(=O)n2nc(C)cc2C)cc1`, the IC50 in test [6] was < 0.4 µM (not active).

`CC(=N\Nc1ccc(Cl)cc1)/C(=N/O)C(=O)Nc1ccccc1`: the AC50 in test [1] is 0.104 µM (active).

Turning to `C[C@H](CO)N1C[C@H](C)[C@H](CN(C)Cc2ccc(Oc3ccccc3)cc2)Oc2ccc(NS(=O)(=O)c3ccc(Cl)cc3)cc2CC1=O`, the AC50 in test [9] was 7.51 µM (active).

Regarding `Cc1ccc(NCc2ccc(O)c3ncccc23)cc1`, the 50% effective concentration (EC50) is > 160 µM (inconclusive) in [10] and > 38 µM (not active) in test [11]. Also, in test [7], the IC50 was > 50 µM (not active).

For `Cc1cc(NC(=O)/C=C/c2ccccc2Cl)n(-c2nc3ccccc3[nH]2)n1`, the half-maximal effective concentration (EC50) was 7.03 µM (active) in [12]; > 150 µM (not active) in [13]; 3.94 µM (active) in test [14]; 13.2 µM (active) in [15]; > 150 µM (not active) in test [16]. In [4], the CC50 was 14.5 µM (active).

`O=C(Cc1ccccc1)N1CC[C@H]2[C@H](CO)Nc3ccc(C4=CCCCC4)cc3[C@H]21`: the AC50 in [17] is 6.67 µM (active); in test [18], 51.3 µM (active).

In the case of `COc1cccc(-c2ccc([C@@H]3[C@H](CO)N4CCCCN(C(=O)c5ccc(F)cc5)C[C@@H]34)cc2)c1`, the half-maximal activity concentration (AC50) in [9] is 5.39 µM (active).

`O=C(O)CCC(=O)N1CCN(c2ccc(C(=O)c3ccc(F)cc3)cc2)CC1`: the IC50 in test [6] is recorded as > 50 µM (not active).

With `Cc1ccc2c(c1)CCCN2C(=O)c1ccc2c(c1)OCO2`, in [6], the IC50 was > 50 µM (not active).

Turning to `Cc1ccc(N(CC(=O)Nc2cccc(C)c2)S(=O)(=O)c2cccc3nonc23)cc1`, the IC50 in [6] was 1.1 µM (not active).

With `C/C(=N\Nc1ccc([N+](=O)[O-])cc1)c1ccc(O)cc1`, the EC50 in test [10] was > 150 µM (inactive); in test [11], > 38 µM (not active). For the same molecule, the AC50 in test [1] was 0.136 µM (active).

Take `C/C(=N\OCC(=O)Nc1ccc(Br)cc1)c1cccs1`: the IC50 in test [6] is > 50 µM (not active).

As to `Cc1ccc(NCc2nc3ccccc3n2CCOc2ccccc2)cc1`, in [7], the IC50 was > 50 µM (not active).

`[O-][S+](N1CCc2ccccc21)C12CC3CC(CC(C3)C1)C2` (configuration not stated): the IC50 in test [6] is reported as 10.8 µM (not active).

In the case of `CSCc1ccc(C(=O)N2CCCC(Nc3ccc(F)cc3)C2)o1` (configuration not stated), the AC50 in test [1] is 2.76 µM (active).

Turning to `CN(c1ccc(O)cc1)c1nc(-c2cccnc2)cs1`, in test [1], the AC50 was 3.84 µM (active). The IC50 in [8] is 17.5 µM (active).
